Values quoted from earlier work as cited in patent US20080019975A1, “Novel Regimens for Treating Diseases and Disorders” (BioAssets Development Corporation, priority 2006, published 2008).

Tested on: sciatica patients
Settings: IV administration, blinded trial versus placebo saline infusion

infliximab
difference between patients treated with the drug versus placebo saline infusion: failed to show a difference
